Data taken from patent US8563545B2, “Compound useful for the treatment of degenerative and inflammatory diseases” (Galapagos NV, priority 2009, dated 2013).
Like-named read-outs stand apart in the source and are kept apart here.

Tests used:
[1] = Steady state PK in rat CIA model; type: in vivo; conditions: plasma; for AUC(0-t): read-out: AUC (0-24 h); for half-life: read-out: T½ (converted)
Method: At day 7 or 11, blood samples were collected at the retro-orbital sinus with lithium heparin as anti-coagulant at the following time points: predose, 1, 3 and 6 hrs. Whole blood samples were centrifuged and the resulting plasma samples were stored at −20° C. pending analysis. Plasma concentrations of each test compound were determined by an LC-MS/MS method in which the mass spectrometer was operated in positive electrospray mode. Pharmacokinetic parameters were calculated using Winnonlin® (Pharsight®, United States) and it was assumed that the predose plasma levels were equal to the 24 hrs plasma levels.

[2] = tested on: JAK1-dependent signaling pathway (IFNα induced pSTAT1) in human whole blood; assay: tissue or blood; conditions: read-out: pIC50 for inhibiting the INFα induced increase of pSTAT1 levels (converted)
Method: The samples were incubated at 37° C. for 30 min.
Absorbance was measured at 450 nm.

[3] = tested on: JAK1-dependent pathway (IL-6 stimulated STAT1 phosphorylation in CD4+ lymphocytes) in human whole blood; assay: cells; conditions: Lymphocyte, read-out: pIC50 in the inhibition of STAT1 phosphorylation (converted)
Method: Therefore, blood was taken from human volunteers who gave informed consent. Blood was then equilibrated for 30 minutes at 37° C. under gentle rocking, then aliquoted in Eppendorf tubes. Compound was added at different concentrations and incubated at 37° C. for 30 minutes under gentle rocking and subsequently stimulated for 20 minutes at 37° C. under gentle rocking with interleukin 6 (IL-6) for JAK1-dependent pathway stimulation or GM-CSF for JAK2-dependent pathway stimulation. Phospho-STAT1 and phospho-STAT5 were then evaluated using FACS analysis.
The increase in phosphorylation of STAT1 by IL-6 in lymphocytes was measured using anti phospho-STAT1 antibody by FACS.
A 3-fold dilution series of the compound was prepared in DMSO (10 mM stock solution). Control-treated samples received DMSO instead of compound. All samples were incubated with a 1% final DMSO concentration.
Human blood was collected in heparinized tubes. The blood was divided in aliquots of 148.54 μl. […]
50,000 total events were counted and Phospho-STAT1 positive cells were measured after gating on CD4+ cells, in the lymphocyte gate. Data were analyzed using the FACSDiva software and the percentage inhibition of IL-6 stimulation calculated on the percentage of positive cells for phospho-STAT1 on CD4+ cells.

Row | SMILES | Cmax ([1]; PO 10 mg/kg/day) [ng/mL] | Tmax ([1]; PO 10 mg/kg/day) [h] | AUC(0-t) ([1]; PO 10 mg/kg/day) [ng·h/mL] | half-life ([1]; PO 10 mg/kg/day) [h] | Cmax ([1]; PO 30 mg/kg/day) [ng/mL] | Tmax ([1]; PO 30 mg/kg/day) [h] | AUC(0-t) ([1]; PO 30 mg/kg/day) [ng·h/mL] | half-life ([1]; PO 30 mg/kg/day) [h] | other results
1 | O=C(Nc1nc2cccc(-c3ccc(CN4CCOCC4)cc3)n2n1)C1CC1 [Compound 2, N-(5-(4-(morpholinomethyl)phenyl)-[1,2,4]triazolo[1,5-a]pyridin-2-yl)cyclopropanecarboxamide] | 867 | 1 | 2020 | 1.17 | 2630 | 1 | 7810 | 3.36 | 
2 | O=C(Nc1nc2cccc(-c3ccc(CN4CCS(=O)(=O)CC4)cc3)n2n1)C1CC1 [Compound 1, Cyclopropanecarboxylic acid {5-[4-(1,1-dioxo-1-thiomorpholin-4-ylmethyl)-phenyl]-[1,2,4]triazolo [1,5-a]pyridin-2-yl}-amide] | 1170 | 1 | 7170 | 4.5 | 3800 | 1 | 27800 | 3.9 | IC50 [2]: 589 nM; Cmax ([1]; PO 0.1 mg/kg/day): 5.18 ng/mL; Tmax ([1]; PO 0.1 mg/kg/day): 3 h; AUC(0-t) ([1]; PO 0.1 mg/kg/day): 30 ng·h/mL; Cmax ([1]; PO 0.3 mg/kg/day): 19.3 ng/mL; Tmax ([1]; PO 0.3 mg/kg/day): 1 h; AUC(0-t) ([1]; PO 0.3 mg/kg/day): 163 ng·h/mL; Cmax ([1]; PO 1 mg/kg/day): 102 ng/mL; Tmax ([1]; PO 1 mg/kg/day): 1 h; AUC(0-t) ([1]; PO 1 mg/kg/day): 931 ng·h/mL; half-life ([1]; PO 1 mg/kg/day): 3.6 h; Cmax ([1]; PO 3 mg/kg/day): 363 ng/mL; Tmax ([1]; PO 3 mg/kg/day): 1 h; AUC(0-t) ([1]; PO 3 mg/kg/day): 1930 ng·h/mL; half-life ([1]; PO 3 mg/kg/day): 5.6 h; IC50 [3]: 832 nM
